This is an account of results in a melting point compilation (Tetko et al.; mined from patent text by program, amines drawn as free bases though some values may be those of a salt).

What is called melting point is the temperature of the solid-liquid transition. Take `CC(C)CC(=O)N1CCC(c2nc3cc(-c4ccc(C(N)=O)c(F)c4)ccc3o2)CC1`: the melting point lay in the range of 186 to 190 °C. `Cn1cc(C(=O)NCc2ccc(Cl)cc2)c(=O)c2cc(CN3CCOCC3)cc(C#CCO)c21` showed a melting point of 180 to 183 °C. Next, `Cc1ccnc(N)c1C`: 79.5 to 81 °C; `CCON1CCC2(CC1)NC(=O)C(c1c(C)cc(C)cc1C)=C2O`: over 250 °C; `Nc1ccc(OCc2nc(Cl)ccc2Cl)cc1`: 74 to 75 °C.

With `Clc1ccc(-c2cc(C3CCN(Cc4cccc(Cl)c4)CC3)n[nH]2)cc1`, the melting point lay within 134 to 136 °C. Next, `Cc1ccc(-c2nc(CN3CCN(C(c4ccccc4)c4ccccc4)CC3)c(C)[nH]2)cc1`: 238 °C.

Turning to `CCCCc1nnc(S(=O)Cc2ccc(OC)cc2)n1Cc1ccc(OC(C(=O)O)c2ccccc2)cc1` (stereo not given), the melting point was in the range of 74 to 75 °C.

With `O=C(O)c1ccc2c(=O)[nH]c(=O)n(CCCCN3CCC(OC(c4ccccc4)c4ccccc4)CC3)c2c1`, the melting point lay within 177 to 179 °C. Turning to `CS(=O)(=O)c1cccc(S(N)(=O)=O)c1`, the melting point is 99.5 to 101 °C. Regarding `O=C(O)c1cccc(-c2ccc3c(c2)N(c2ccc(Cl)cc2Cl)CCCC3)c1`, the melting point is 131 to 132 °C. Consider `CC(O)CC1NCc2ccsc2-n2cccc21` (stereo not given), for which the melting point is 130 °C.

`CC(=O)c1cn(S(=O)(=O)c2ccccc2)c2nccc(Cl)c12`: the melting point was 160 to 162 °C. In the case of `CCOc1ncc(C(C)=O)cc1-c1nc2c(CC)n(CC3CC3)nc2c(=O)[nH]1` it was 200 to 201 °C. In the case of `CNC(=O)c1cccc2cccc(NC(=O)c3ccc(F)c(F)c3)c12` it was over 250 °C; in that of `CC1CN(C)Cc2cc(-c3ccccc3)n(Cc3ccccc3)c21` (stereo not given), 90 to 91 °C. Take `Cc1ccnc(Cl)c1C(N)=O`: the melting point was in the range of 168 to 170 °C. Next, `C[N+](C)([O-])CC#CC1=Cc2ccccc2Sc2ccc(Cl)cc21`: 68 to 69 °C; `CCOC(=O)c1c(C)c[nH]c1C`: 74 to 76 °C. Compound `COc1ccc(-c2nc([N+](=O)[O-])n(C(=O)c3ccccc3)c2-c2ccc(OC)cc2)cc1` showed a melting point of 161 to 163 °C. Consider `COc1cc(C)nc(NCSc2ccc(Cl)cc2)n1`, for which the melting point lay in the range of 78 to 82 °C.

Turning to `O=C1CCCc2oc(-c3ccccc3)cc21`, the melting point was 132 to 134 °C.

On to `CC(C)(C)OC(=O)C(CSCc1ccc(-c2ccc(-c3cccc4c3oc3ccccc34)cc2)cc1)C(=O)O` (stereo not given), for which the melting point is 205 to 206 °C.

Compound `COc1ccc(-c2cc(C(C)(C)C)sc2-c2ccc(OC)cc2)cc1` showed a melting point of 112 to 115 °C.

Compound `CN1C(=O)C2C3Oc4ccccc4OC3=C3C(Oc4cccnc4N3C(=O)Oc3ccccc3)C2C1=O` (stereo not given) yielded a melting point of 245 °C. Next, `CCOC(=O)c1cnc2c(OCC)csc2c1O`: 223 to 224 °C; `COc1ccc2c(c1)C(=NOCCN(C)C)c1c-2c(N2CCNCC2)nc2ccccc12`: 84 to 86 °C; `CC(C)NC(=O)NC[C@H](C)NC(=O)OC(C)(C)C`: 101 °C. In the case of `CCc1cc2c(cc1Sc1ccc(C(=O)O)cc1)C(C)(C)CCC2(C)C` it was 82 to 83 °C; in that of `CCCC(=O)NCCc1c[nH]c2ccc(OCCN3CCCCC3)cc12`, 113 to 114 °C; in that of `COc1cccc(COCCC(C(=O)O)c2ccccc2)c1` (stereo not given), 112 to 114 °C. Next, `OCCc1c[nH]c(-c2ccccc2OCc2ccccc2)n1`: 131 to 133 °C; `Cc1cc(Oc2c([N+](=O)[O-])cc([N+](=O)[O-])cc2C(F)(F)F)n[nH]1`: 145 to 147 °C; `COCC(=O)N(CC(C)=NOC)c1c(C)cccc1C`: 56 to 57 °C. On to `CC(C)(C)OC1CCC2(C)C(=CC(=O)C3C4CCC(=O)C4(C)CCC32)C1` (stereo not given), for which the melting point fell in the range of 189 to 191 °C.

`CCCCc1ccc(-c2coc(C(=O)O)cc2=O)cc1` had a melting point of 193 to 195 °C. As for `O=C(CN1CCN(c2nccs2)CC1)N1CCC(O)(c2cccc(C(F)(F)F)c2)CC1`, the melting point lay in the range of 157 to 158 °C. `CCCCNc1c(C(=O)OCC)c(C)nc2[nH]nnc12` returned a melting point of 188 to 189 °C. `c1ccc2c(c1)C(=NOCCN1CCOCC1)c1ccccc1C1CC21` (stereo not given) displayed a melting point of 90 to 91 °C. Turning to `CCCCOC(=O)c1cnc(C(=O)O)c(OC)c1`, the melting point was in the range of 96 to 98 °C. In the case of `COC(=O)c1ccccc1S(=O)(=O)NC(=O)c1cc(C)on1` it was 101 °C. In the case of `Nc1ncnc2c1ncn2Cc1oc2ccc(Br)cc2c(=O)c1-c1ccccc1F` it was 231 to 233 °C.

`CNC(=O)c1c(-c2ccccc2)noc1CC(O)c1ccccc1` (stereo not given): the melting point was 183 to 184 °C. Turning to `CCOP(=O)(COS(=O)(=O)c1c(C)cccc1Cl)OCC`, the melting point was in the range of 41 to 43 °C.

Consider `Cc1nnc2n1-c1ccc(C#CCn3cnc4ccccc43)cc1C(c1ccccc1Cl)=NC2`, for which the melting point is 165 to 168 °C. `O=c1cc(Cl)cc(Cl)o1` yielded a melting point of 43 to 45 °C. For `CC(=O)Oc1ccc(-c2cc3ccccc3[nH]2)cc1`, the melting point came to 203 °C. The compound `CCCn1cc2c(n1)c(N)nc1ccccc12` gave a melting point of 225 to 227 °C.

As to `OCC(CO)Cc1ccccc1`, the melting point was in the range of 64 to 65 °C.

Compound `CCOC(=O)C1=CNC2=C(C(=O)CCC2)C1c1nccs1` (stereo not given) had a melting point of 239 to 240 °C. For `CC(C)(C)CNc1nc(Cl)cc(NC(C)(C)C)n1`, the melting point lay within 115 to 119 °C. `CCN(CC)S(=O)(=O)c1ccc(C(CC2CCCC2)C(=O)Nc2nc3ccc(OC)nc3s2)cc1` (stereo not given) showed a melting point of 150 to 152 °C.

In turn, `Nc1c(NC=O)c(=O)[nH]c(=O)n1Cc1ccc(Cl)cc1` gave a melting point of 274 to 278 °C.

Consider `N#CCC(C#N)=CNc1c(Cl)cc(C(F)(F)F)cc1Cl`, for which the melting point amounted to 122 °C. `CC1(C)C(C=CC(=O)OCC(F)(F)F)C1C(=O)OC(C#N)c1ccc(F)c(Oc2ccccc2)c1` (stereo not given) had a melting point of 56 °C.

Compound `CCOC(=O)Nc1c(-c2ccccc2)c2cc(Cl)ccc2n1C` had a melting point of 123 to 124 °C. Regarding `CCCOc1n[nH]c(=O)n1C1CCCCC1`, the melting point lay in the range of 132 to 136 °C. The compound `CCOC(=O)c1ccc(-c2nn(Cc3ccccc3)c3ccccc23)cc1` had a melting point of 95 to 96 °C. Next, `CCN(C(=O)n1oc(C)c(Cl)c1=O)c1ccc(Cl)cc1Cl`: 101 to 102 °C; `COc1ccc([N+](=O)[O-])c(Br)c1OC`: 120 to 122 °C; `CC(C)(C)NCC(O)COc1cccc(C#N)c1` (stereo not given): 108 to 110 °C. `CCOC(=O)c1cn(CC)c2nc(N3CCN(CCO)CC3)ncc2c1=O`: the melting point turned out to be 172 °C. In turn, `NC(=NO)c1cccc2ccccc12` gave a melting point of 128 to 130 °C. As for `NC(=O)C1CCN(c2cc(-c3ccc(Cl)cc3)nc3ccc(Cl)cc23)CC1`, the melting point was in the range of 272 to 275 °C. Compound `CCC(=O)Oc1n[nH]c(=O)c2nc3cc(Cl)ccc3c(O)c12` yielded a melting point of 275 to 278 °C.

The compound `CN(C)c1ccc(Cn2cnc3c(-c4ccco4)ncnc32)cc1` showed a melting point of 158 to 160 °C. The compound `Cc1nn(C)c(Cl)c1C(=O)Nc1cccc2c1CCC2(C)C` came in with a melting point of 175 °C. `Cc1ccc(-c2cncn2-c2ccc(S(C)(=O)=O)cc2)cc1` showed a melting point of 156 °C. `CCOC(=O)CC1(CC)OCCc2c1[nH]c1c(C)cccc21` (stereo not given) gave a melting point of 77 to 78 °C. The compound `O=C1CCC(N2Cc3c(OCc4cccc(CN5CCC(c6ccc(Cl)cc6)CC5)c4)cccc3C2=O)C(=O)N1` (stereo not given) registered a melting point of 180 to 182 °C. For the compound `O=C(O)c1ccc(-c2ccc3cc(OCc4ccccc4)c(C45CC6CC(CC(C6)C4)C5)cc3c2)cc1`, the melting point was 305 to 310 °C. `COC(=O)c1ccc(O)cc1NC(=O)C=Cc1ccc(-c2ccccc2)cc1` yielded a melting point of 292 to 296 °C. For `COc1ccc(-c2coc3cc(OCC(O)CN4CCNCC4)ccc3c2=O)cc1OC` (stereo not given), the melting point was in the range of 84 to 85 °C. Next, `CSc1cc2c(cc1C(F)(F)F)N(C(=O)Nc1cccc(C(=O)N(C)CCN(C)C)c1)CC2`: 140 to 141 °C; `CC(C)(C)OC(=O)[C@@H]1CSC(Cc2ccccc2)N1C(=O)CNC(=O)Nc1cccc(CC(=O)O)c1` (stereo not given in full): 110 °C. As to `O=S(=O)(c1ccc(F)cc1)c1c[nH]c2ncccc12`, the melting point lay within 212 to 213 °C.

In turn, `CCCc1nnc(-c2ccc([N+](=O)[O-])cc2)n1-c1ccc(OC)cc1` registered a melting point of 140 °C. In turn, `O=C(O)[C@H]1C[C@H](NC(=O)N(c2ccccc2)c2ccccc2)c2c(Cl)cc(Cl)cc2N1` (relative stereo) yielded a melting point of 214 to 216 °C. The compound `N#Cc1ccc[nH]c1=S` yielded a melting point of 243 to 246 °C. Turning to `CN1CC(C(=O)c2nc(Cc3ccc(F)cc3)co2)=C(O)C1=O`, the melting point is 209 to 210 °C. `CC(=O)C(Cl)=NNc1cccc(C)c1` yielded a melting point of 144 to 146 °C. In the case of `COc1cc(C(C)=O)ccc1OCCCN1C2CCC1CC(c1nsc3cc(F)ccc13)C2` (stereo not given), the melting point lay within 118 to 119 °C. Regarding `C[C@@H](Nc1c(NCc2ccc(F)cc2)c(=O)c1=O)C(C)(C)C`, the melting point fell in the range of 289 to 291 °C. Consider `CCC(=O)c1cc(O)cc2cc(-c3ccc(O)cc3)oc12`, for which the melting point lay within 257 to 260 °C. `Cc1oc(-c2ccco2)nc1COc1cccc(CO)c1`: the melting point lay in the range of 100 to 101 °C.

In turn, `CC(C)(O)c1onc(-c2ccccc2Cl)c1C(=O)c1nnn(Cc2cc(F)cc(C(F)(F)F)c2)c1-c1cccnc1` showed a melting point of 180 °C. In turn, `CCOC(=O)C(NC(=O)CNC(=O)OCc1ccccc1)C(=O)OCC` came in with a melting point of 94.5 to 95.5 °C. Take `O=C(NCc1ccc(Cl)cc1)c1cn2c3c(cc(CN4CCOCC4)cc3c1=O)OC(c1ccccc1O)C2` (stereo not given): the melting point was 239 °C. In turn, `CC(C)Nc1cccnc1N1CCN(C(=O)c2ccc(C(=O)NCCO)cc2)CC1` displayed a melting point of 182 to 184 °C.

The compound `NC1=C([N+](=O)[O-])C(=O)NC1=Cc1ccccc1` registered a melting point of over 260 °C.
